Data as given in PMC10307885, “A Phase 1/2 trial of SRA737 (a Chk1 inhibitor) administered orally in patients with advanced cancer” (British Journal of Cancer, 2023).
Several values for one entry are separate records, joined by “and”; a condition that tells them apart may be missing. Identical values can stand only once. Entries after “also recorded” stand apart in the source; their conditions may differ. Like-named read-outs stand apart in the source and are kept apart here.

Columns and labels:
Chk1 = test system: Chk1; parameters: method as in printed; settings: previously shown in preclinical experiments; ref not given; cited from earlier work
[1] = test system: patients with advanced cancer; settings: in combination with low-dose gemcitabine; anogenital, cervical, high-grade serous ovarian, rectal and small cell lung cancer; cited from earlier work
[2] = Plasma SRA737 pharmacokinetics (LC-MS assay, non-compartmental methods); type: in vivo, human; settings: for Cmax / AUC(0-t) / Tmax / Vd/F / half-life: human, oral; for AUC(0-t): read-out: AUC0-24; for Tmax / Vd/F / half-life: plasma
Protocol: Serial sampling of blood for PK assessment was conducted before and after dosing with single-agent SRA737 (9 time points over 48 h) on Day −7 to Day −4 and on Cycle 1 Day 22; in addition, samples were drawn pre-dose on Days 1, 8, and 15 of Cycle 1, and pre-dose on Day 1 of each subsequent cycle. Plasma SRA737 concentrations were quantified using a fully validated liquid chromatography-mass spectrometry assay with a lower limit of quantitation of 5 ng/ml as previously described.
Safety and response variables were summarized using descriptive statistics and PK parameters were determined using non-compartmental methods. A concentration-effect model was used to evaluate the relationship between plasma SRA737 concentrations and the mean change from baseline in QT interval corrected for heart rate using Fridericia’s formula (QTcF) in time-matched ECG measurements and PK samples collected on Day −7 to Day −4 and during Cycle 1.

[3] = test system: advanced solid tumours (CRC, HGSOC, NSCLC, mCRPC, HNSCC); assay: Tumour response by RECIST 1.1; type: in vivo, human
Protocol: Radiologic tumour assessments were carried out every 8 weeks, and clinical evaluations and serum tumour markers assessed every 4 weeks. Tumours were assessed using the Response Evaluation Criteria in Solid Tumors version 1.1 (RECIST 1.1). Clinical response data were summarized in cohorts defined by tumour type (CRC, HGSOC, NSCLC, mCRPC, HNSCC, or other disease). The Safety Evaluable population included all patients who received at least one dose of SRA737. The Response Evaluable population included patients who had measurable disease at baseline, received at least 75% of planned SRA737 doses in Cycle 1 and had at least one post-baseline disease assessment or discontinued treatment due to disease progression, adverse event, or death.

[4] = 600 mg, repeat doses, N 7, plasma, mean ± standard deviation
[5] = 800 mg, repeat doses, N 31, plasma, mean ± standard deviation
[6] = 1000 mg, repeat doses, N 16, plasma, mean ± standard deviation
[7] = single SRA737 dose, at or above the dose level of 300 mg QD

**Q.** What does the source list for N#Cc1cnc(Nc2cc(NC[C@H]3CNCCO3)c(C(F)(F)F)cn2)cn1 [SRA737, (R)-5-((4-((morpholin-2-ylmethyl)amino)-5-(trifluoromethyl)pyridin-2-yl)amino)pyr azine-2-carbonitrile]?
**A.** minimally effective concentration to inhibit Chk1 (Chk1): 100 nM and 37.9 ng/mL; RECIST tumour responses [1]: RECIST partial tumour responses were observed; Systemic exposure (Cmax and AUC) between dose levels ([2]; 600 mg vs 1000 mg dose levels): tended to be comparable; CL/F [2, 4]: 26.9 ± 2.85 L/h; Cmin [2, 4]: 230 ± 123 ng/mL; Exposure relative to minimum effective concentration extrapolated from preclinical models ([2]; 800 mg QD and 1000 mg QD): exceeded the minimum effective concentration; Cmin ([2]; 800 mg QD, repeat doses, N 31, plasma, mean ± standard deviation): 312 ng/mL and 312 ± 166 ng/mL; CL/F [2, 5]: 38.0 ± 22.2 L/h; CL/F [2, 6]: 39.7 ± 9.20 L/h; Cmin [2, 6]: 499 ± 185 ng/mL; Cmax [2, 4]: 2470 ± 328 ng/mL; AUC(0-t) [2, 4]: 22100 ± 2450 ng·h/mL; Cmax [2, 5]: 2480 ± 679 ng/mL; AUC(0-t) [2, 5]: 24700 ± 8580 ng·h/mL; Cmax [2, 6]: 2490 ± 666 ng/mL; AUC(0-t) [2, 6]: 27200 ± 9210 ng·h/mL; Tmax ([2]; 600 mg, repeat doses on C1D8, C1D22, C2D8, C2D15 or C2D22, N 7, plasma, median (minimum-maximum), read-out: tmax): 2 h; Vd/F ([2]; 600 mg, repeat doses, N 7, plasma, mean ± standard deviation, read-out: Vd/F): 320 ± 61.1 L; half-life ([2]; 600 mg, repeat doses, N 7, plasma, mean ± standard deviation, read-out: t½ (converted)): 8.22 ± 1.27 h; Tmax ([2]; 800 mg, repeat doses on C1D8, C1D22, C2D8, C2D15 or C2D22, N 31, plasma, median (minimum-maximum), read-out: tmax): 2 h; Vd/F ([2]; 800 mg, repeat doses, N 31, plasma, mean ± standard deviation, read-out: Vd/F): 454 ± 299 L; half-life ([2]; 800 mg, repeat doses, N 31, plasma, mean ± standard deviation, read-out: t½ (converted)): 8.25 ± 1.17 h; Tmax ([2]; 1000 mg, repeat doses on C1D8, C1D22, C2D8, C2D15 or C2D22, N 16, plasma, median (minimum-maximum), read-out: tmax): 2 h; Vd/F ([2]; 1000 mg, repeat doses, N 16, plasma, mean ± standard deviation, read-out: Vd/F): 477 ± 87 L; half-life ([2]; 1000 mg, repeat doses, N 16, plasma, mean ± standard deviation, read-out: t½ (converted)): 8.45 ± 1.06 h; half-life ([2]; 1000 mg, repeated doses of 600, 800 and 1000 mg QD, read-out: Estimated elimination half-life (t½) values, range): 6.23 to 10.4 h; Tmax ([2]; 1000 mg, repeated doses of 600, 800 and 1000 mg QD, read-out: Tmax, generally occurred): 2 to 4 h; Tmax ([2]; 1000 mg, repeated doses of 600, 800 and 1000 mg QD, read-out: Tmax, ranged): 1 to 6 h; Vd/F ([2]; 1000 mg, repeated doses of 600, 800 and 1000 mg QD, read-out: individual apparent volume of distribution (Vd/F) values, range): 215 to 1590 L; time plasma concentration of 100 nM (37.9 ng/mL) was achieved, all patients [2, 7]: at least 24 h; time plasma concentration of 100 nM (37.9 ng/mL) was achieved, majority of patients [2, 7]: up to 48 h; disease control rate (at least four cycles with at least stable disease as best response) ([3]; HGSOC, 11/26): 42.3%; disease control rate (at least four cycles with at least stable disease as best response) ([3]; HNSCC, 3/4): 75.0%; disease control rate (at least four cycles with at least stable disease as best response) ([3]; NSCLC, 3/8): 37.5%; patients with reduction or no increase in sum of RECIST target tumour diameters and/or stable disease for 4 or more cycles ([3]; in vivo): 29 patients; reductions in tumour size ([3]; in vivo): up to 29 % reduction; disease control rate (at least four cycles with at least stable disease as best response) ([3]; mCRPC, 8/13): 61.5%; RECIST responses (complete or partial) ([3]; monotherapy, expansion cohort patients with predefined genetic mutations): no complete or partial RECIST responses; also recorded: no partial or complete RECIST responses
